Consider 12 molecules from patent publication US20030109570A1 (priority 2002, published 2003).

Counter-ions that a name gives are not always drawn.

One test deals with T1, human PPARα receptor (Homo sapiens, UniProt Q07869).
T1 construct: and; expressed in transfected cells; host or cells: CV-1 cells, pSG5-based Gal4-PPAR expression vector
T1 sequence (Q07869 167-468): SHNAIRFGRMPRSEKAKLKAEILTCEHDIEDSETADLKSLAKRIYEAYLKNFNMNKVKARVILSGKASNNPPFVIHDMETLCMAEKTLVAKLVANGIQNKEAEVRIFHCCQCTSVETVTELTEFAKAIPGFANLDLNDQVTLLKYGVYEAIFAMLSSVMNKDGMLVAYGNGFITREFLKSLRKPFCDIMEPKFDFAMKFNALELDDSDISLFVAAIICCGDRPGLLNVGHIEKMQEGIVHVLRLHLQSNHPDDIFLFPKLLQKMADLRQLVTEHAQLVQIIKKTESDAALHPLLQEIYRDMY
The experiment in a line: Luciferase assay using human PPARα receptor (Gal4 chimera, CV-1 cells). The class given is cell-based. As to conditions: 24 h, luciferase activity of Wy-14.643 at 10 μM = 100, read-out: PPARα agonist activity, Relative activity. On the procedure: (§1) 1) Materials for a Luciferase Assay Using Human PPARα and γ
(§2) The entire procedure was conducted using a usual yeast one- or two-hybrid system according to a basic genetic engineering process.
(§3) pGL2-UAS5-TK-luc was prepared as a reporter plasmid having a response sequence of the Gal4 protein as an yeast basic transcription factor and a luciferase gene (luc) under the control by an enhancer sequence with five times repeats of UAS and the thymidine kinase (TK) promoter promoter.
(§4) A vector expressing a chimera receptor in which a ligand binding region in an intranuclear receptor human PPARα or γ receptor was fused to the […] terminus in the DNA binding region of the yeast Gal4 protein was prepared as follows. Specifically, using pSG5 (trade name, STRATAGENE, Catalogue No.216201) as a basic expression vector, the structural gene was replaced with that of a chimera receptor.
(§5) A DNA encoding the ligand binding region in human PPARα or γ receptor was inserted downstream of the DNA binding region in the Gal4 protein, i.e., the DNA encoding the 1st to 147th amino acid sequence such that the frames were aligned and it was inserted downstream of the promoter-enhancer region in pSG5 (trade name). For localizing the expressed chimera receptor in the nucleus, the DNA sequence was constructed such that a nuclear transition signal derived from SV-40T antigen, Ala Pro Lys Lys Lys Arg Lys Val Gly (SEQ ID NO. 4) was present at the amino terminus of the ligand binding region in the human PPARα or γ receptor.
(§6) As the structural gene segment for a ligand binding region in the human PPARα or γ receptor, a DNA was used which encoded:
human PPARα ligand binding region: Ser^167-Tyr^468; and
(§7) 2) Luciferase Assay Using the Human PPARα or γ Receptor
(§8) CV-1 cells used as a host cell were cultured as usual. Specifically, a fetal calf serum (Intergen, Catalogue No.1020-90) was added to the Dulbecco modified eagle medium (DMEM) to the final concentration of 10%, and penicillin G and streptomycin sulfate were then added to the final concentrations of 50 U/mL and 50 μg/mL, respectively. In the medium, the cells were cultured at 37° C. under 5% carbon dioxide.
(§9) The day before transfection, the cells were inoculated in a 24 well plate at 1.5×10^5 cells/well in advance. LipofectAMINE (trade name, GIBCOBRL, Catalogue No.26300-61) was used for transfection. Specifically, for each well, in 40 μL of a serum-free medium Opti-MEM (trade name, GIBCOBRL, Catalogue No.31985-070) were well mixed 100 ng of a reporter plasmid, 12.5 ng of Gal4-PPAR expression vector, 200 ng of pRL-TK (trade name) as an internal control, 287.5 ng of pGEM-3Zf(+) (trade name, PROMEGA, Catalogue No. P2271) as a carrier DNA and 2.6 μL of LipofectAMINE (trade name, GIBCOBRL, Catalogue No.26300-61). To the mixture was added 170.2 μL of Opti-MEM (trade name). After washing with PBS (Phosphate Buffered Saline) and Opti-MEM (trade name), the mixture was added to the above cells. After culturing at 37° C. for 16 hours, the medium was replaced with DMEM-10% charcoal-[…] treated fetal calf serum (trade name, HyClone, Catalogue No. SH30068.03) containing a compound of this invention. After culturing at 37° C. for 24 hours, the cells were lysed and determined for its luciferase activity as usual.

The target in a further test is T2, human PPARγ receptor (Homo sapiens, UniProt P37231).
T2 construct: expressed in transfected cells; host or cells: CV-1 cells, pSG5-based Gal4-PPAR expression vector
T2 sequence (P37231 204-505): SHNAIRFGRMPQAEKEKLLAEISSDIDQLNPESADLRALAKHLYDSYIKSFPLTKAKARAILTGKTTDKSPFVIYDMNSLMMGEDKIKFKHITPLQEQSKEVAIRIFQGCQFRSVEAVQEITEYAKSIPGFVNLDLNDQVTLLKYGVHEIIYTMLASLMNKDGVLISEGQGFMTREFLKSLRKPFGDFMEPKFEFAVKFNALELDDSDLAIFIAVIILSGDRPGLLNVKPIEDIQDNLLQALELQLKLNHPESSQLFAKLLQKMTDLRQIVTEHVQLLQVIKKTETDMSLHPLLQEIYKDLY
The experiment in a line: Luciferase assay using human PPARγ receptor (Gal4 chimera, CV-1 cells). As to conditions: 24 h, luciferase activity of Pioglitazone at 1 μM = 100, read-out: PPARγ agonist activity, Relative activity. In kind it is cell-based. On the procedure:
as §1, §2, §3, §4, §5, §6
human PPARγ ligand binding region: Ser^176-Tyr^478
which correspond to Ser^204-Tyr^506 in the human PPARγ 1 receptor and PPARγ 2 receptor and thus have the same base sequence, from structural comparison for human PPAR receptors described in R. Mukherjee et al., J. Steroid Biochem. Molec. Biol., Vol. 51, p.157 (1994); M. E. Green et al. (Gene Expression., Vol.4, p.281 (1995). For monitoring an effect on basic transcription, was also prepared an expression vector having encoding only the DNA binding region of the Gal4 protein lacking the PPAR ligand binding region, the 1st to 147th amino acid sequence and a nuclear transition signal for SV-40T-antigen.
as §7, §8, §9

For the molecule `CCOC(=O)C(C)(Cc1cc2cc(OC)c(OC)cc2s1)Oc1ccc(C#N)cc1` (stereo not drawn) [Example 1], at human PPARα receptor, the Emax at 0.1 µM was found to be 0.2%, the Emax at 1 µM was 0.2% and the Emax at 10 µM turned out to be 0.5%. Further, at human PPARγ receptor, the Emax at 0.1 µM worked out at 0.4%, the Emax at 1 µM was determined as 3.2% and the Emax at 10 µM stood at 81.5%.

`COc1cc2cc(CC(C)(Oc3ccc(C#N)cc3)C(=O)O)sc2cc1OC` (stereo not drawn) [Example 2]: on human PPARα receptor, the Emax at 0.1 µM is 0.1%, the Emax at 1 µM was 0.1% and the Emax at 10 µM was 66.4%. Besides, on human PPARγ receptor, the Emax at 0.1 µM was determined as 17.8%, the Emax at 1 µM stood at 81.9% and the Emax at 10 µM came to 78.7%.

As for `COc1cc2cc(CC(C)(Oc3ccc(C(C)C)cc3)C(=O)O)sc2cc1OC` (stereo not drawn) [Example 3, 3-(5,6-dimethoxybenzothiophen-2-yl)-2-(4-isopropylphenoxy)-2-methylpropanoic Acid], at human PPARα receptor, the Emax at 0.1 µM is 13.2%, the Emax at 1 µM is 116% and the Emax at 10 µM was determined as 111%. On human PPARγ receptor, the Emax at 0.1 µM turned out to be 9.5%, the Emax at 1 µM turned out to be 86.7% and the Emax at 10 µM was found to be 86.1%.

For the molecule `COc1cc2cc(CC(C)(Oc3ccc(C(=N)N4CCOCC4)cc3)C(=O)O)sc2cc1OC` (stereo not drawn) [Example 5, 3-(5,6-dimethoxybenzothiophen-2-yl) -2-methyl-2-(4-morpholinoamidinophenoxy)propanoic Acid Hydrochloride], on human PPARα receptor, the Emax at 0.1 µM stood at 0.2%, the Emax at 1 µM was 0.3% and the Emax at 10 µM worked out at 0.7%. Further, on human PPARγ receptor, the Emax at 0.1 µM turned out to be 0.3%, the Emax at 1 µM was determined as 0.3% and the Emax at 10 µM stood at 3.1%.

As for `COc1cc2sc(/C=C(\Oc3ccc(C(C)C)cc3)C(=O)O)cc2c(Cl)c1OC` [Example 6, (Z)-3-(4-chloro-5,6-dimethoxybenzothiophen-2-yl)-2-(4-isopropylphenoxy)propenoic Acid], on human PPARα receptor, the Emax at 0.1 µM was found to be 0.1%, the Emax at 1 µM was determined as 0.1% and the Emax at 10 µM came to 0.1%. In addition, on human PPARγ receptor, the Emax at 0.1 µM was determined as 1.2%, the Emax at 1 µM turned out to be 19% and the Emax at 10 µM was 60.1%.

In the case of `CCOC(=O)C(C)(Cc1cc2ccccc2s1)C(N)=O` (stereo not drawn) [Example 8, 2-(benzothiophen-2-yl)methyl-2-methylmalonamide Ethyl Ester], at human PPARα receptor, the Emax at 0.1 µM was 0.1%, the Emax at 1 µM stood at 0.1% and the Emax at 10 µM is 0.2%. On human PPARγ receptor, the Emax at 0.1 µM stood at 0.3%, the Emax at 1 µM turned out to be 0.3% and the Emax at 10 µM was 0.3%.

`CC(Cc1cc2ccccc2s1)(C(=O)O)C(=O)NC1CCCCC1` (stereo not drawn) [Example 10, 2-(benzothiophen-2-yl)methyl-2-methylmalonic Acid N-cyclohexylamide]: on human PPARα receptor, the Emax at 0.1 µM was 0.1%, the Emax at 1 µM came to 0.1% and the Emax at 10 µM was 20.7%. Further, at human PPARγ receptor, the Emax at 0.1 µM is 1.2%, the Emax at 1 µM turned out to be 2.1% and the Emax at 10 µM turned out to be 31.2%.

As for `CC(Cc1cc2ccccc2s1)(C(=O)O)C(=O)N1CCOCC1` (stereo not drawn) [Example 11, 2-(benzothiophen-2-yl)methyl-2-methylmalonic Acid N-morpholinoamide], on human PPARα receptor, the Emax at 0.1 µM is 0.1%, the Emax at 1 µM came out at 0.2% and the Emax at 10 µM turned out to be 0.3%. Moreover, on human PPARγ receptor, the Emax at 0.1 µM stood at 0.3%, the Emax at 1 µM worked out at 0.3% and the Emax at 10 µM was found to be 0.3%.

Regarding `CC(C)c1ccc(NC(=O)C(C)(Cc2cc3ccccc3s2)C(=O)O)cc1` (stereo not drawn) [Example 12, 2-(benzothiophen-2-yl)methyl-2-methylmalonic Acid N-(4-isopropylphenyl)amide], on human PPARα receptor, the Emax at 0.1 µM was 0.2%, the Emax at 1 µM was determined as 0.2% and the Emax at 10 µM was 0.2%. For the same molecule, on human PPARγ receptor, the Emax at 0.1 µM was determined as 0.3%, the Emax at 1 µM amounted to 0.3% and the Emax at 10 µM is 0.5%.

`COc1cc2cc(CC(C)(C(=O)O)C(=O)NC3CCCCC3)sc2cc1OC` (stereo not drawn) [Example 14, 2-(5,6-dimethoxybenzothiophen-2-yl)methyl-2-methylmalonic Acid N-cyclohexylamide]: on human PPARα receptor, the Emax at 0.1 µM was 0.2%, the Emax at 1 µM came out at 0.2% and the Emax at 10 µM was 0.6%. Further, on human PPARγ receptor, the Emax at 0.1 µM is 0.3%, the Emax at 1 µM was 0.3% and the Emax at 10 µM is 0.5%.

In the case of `COc1cc2cc(CC(C)(Oc3ccc(C#N)cc3)C(N)=O)sc2cc1OC` (stereo not drawn) [Example 15], on human PPARα receptor, the Emax at 0.1 µM stood at 0.2%, the Emax at 1 µM was 0.2% and the Emax at 10 µM came to 0.1%. Besides, at human PPARγ receptor, the Emax at 0.1 µM was 0.5%, the Emax at 1 µM came to 0.4% and the Emax at 10 µM was determined as 1.1%.

For `CCCCNC(=O)C(C)(Cc1cc2cc(OC)c(OC)cc2s1)Oc1ccc(C#N)cc1` (stereo not drawn) [Example 16], at human PPARα receptor, the Emax at 0.1 µM amounted to 0.2%, the Emax at 1 µM came out at 0.2% and the Emax at 10 µM amounted to 0.1%. For the same molecule, at human PPARγ receptor, the Emax at 0.1 µM is 0.4%, the Emax at 1 µM was determined as 0.4% and the Emax at 10 µM is 0.3%.
